Values joined by “and” are separate entries in the source; they are usually repeats but may differ in a detail not shown here. Equal values may be shown once. Toxic doses and inconclusive results are not listed. Numbered stars: 1 amine (or outer) side, 2 acyl side, 3 side chain; on linkers, the order of the positions; unused ones are H or OH. Bridge positions count the residues as written; N and C are the ends. Square brackets hold non-standard residues; d marks the D form. Peptide text beside a SMILES is read from it. I, II: the chains in the order shown. Actinocin(1to9) = Cc1c2oc3c(C)ccc(C(=O)[*:2])c3nc-2c(C(=O)[*:1])c(N)c1=O; NMeV = CN[CH](C(=O)O)C(C)C; Sar = CNCC(=O)O

This test deals with L1210 leukemia ip in BDF1 mice, survival T/C. In words: NCI In Vivo Anticancer Drug Screen. Data for tumor model L1210 Leukemia (intraperitoneal) in B6D2F1 (BDF1) mice. The note with it: higher = longer survival. The essentials: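 Tumor cells were implanted, animals were treated, and survival was followed. The result divides the treated measurement by the vehicle-control measurement.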

Where [1] appears, read: endpoint: mean survival time, dose: 100.0 mg/kg/injection, schedule: Q01DX001 (ip), vehicle: carboxymethylcellulose (CMC).
Setting [2] is: endpoint: mean survival time, dose: 200.0 mg/kg/injection, schedule: Q01DX001 (ip), vehicle: carboxymethylcellulose (CMC).
The mark [3] stands for this setting: endpoint: mean survival time, dose: 400.0 mg/kg/injection, schedule: Q01DX001 (ip), vehicle: carboxymethylcellulose (CMC).
The mark [4] stands for this setting: endpoint: mean survival time, dose: 100.0 mg/kg/injection, schedule: Q04DX002 (ip), vehicle: saline with Tween-80.
The mark [5] stands for this setting: endpoint: mean survival time, dose: 200.0 mg/kg/injection, schedule: Q04DX002 (ip), vehicle: saline with Tween-80.

`O=C(Nc1ccc(C(=O)O)cc1)Nc1cc(C(F)(F)F)ccc1Cl`: the T/C under setting [1] is 93 % of control; the T/C (endpoint: mean survival time, dose: 100.0 mg/kg/injection, schedule: Q01DX009 (ip), vehicle: carboxymethylcellulose (CMC)) is 95 % of control and 110 % of control; the T/C (endpoint: mean survival time, dose: 100.0 mg/kg/injection, schedule: Q04DX002 (ip), vehicle: carboxymethylcellulose (CMC)) is 95 % of control and 97 % of control; the T/C (endpoint: mean survival time, dose: 100.0 mg/kg/injection, schedule: Q04DX003 (ip), vehicle: carboxymethylcellulose (CMC)) was 94 % of control; the T/C under setting [2] is 93 % of control; the T/C (endpoint: mean survival time, dose: 200.0 mg/kg/injection, schedule: Q01DX009 (ip), vehicle: carboxymethylcellulose (CMC)) is 100 % of control and 90 % of control. Further, the T/C is 93 % of control and 97 % of control (endpoint: mean survival time, dose: 200.0 mg/kg/injection, schedule: Q04DX002 (ip), vehicle: carboxymethylcellulose (CMC)); 97 % of control (endpoint: mean survival time, dose: 200.0 mg/kg/injection, schedule: Q04DX003 (ip), vehicle: carboxymethylcellulose (CMC)); 93 % of control under setting [3]; 92 % of control (endpoint: mean survival time, dose: 400.0 mg/kg/injection, schedule: Q01DX009 (ip), vehicle: carboxymethylcellulose (CMC)); 96 % of control and 90 % of control (endpoint: mean survival time, dose: 400.0 mg/kg/injection, schedule: Q04DX002 (ip), vehicle: carboxymethylcellulose (CMC)); 96 % of control (endpoint: mean survival time, dose: 400.0 mg/kg/injection, schedule: Q04DX003 (ip), vehicle: carboxymethylcellulose (CMC)).
Consider `NC(Cc1cc(Br)c(O)c(Br)c1)C(=O)O` (stereo not given), for which the T/C is 97 % of control (endpoint: mean survival time, dose: 100.0 mg/kg/injection, schedule: Q01DX001 (ip), vehicle: saline); 90 % of control (endpoint: mean survival time, dose: 100.0 mg/kg/injection, schedule: Q01DX009 (ip), vehicle: saline); 103 % of control (endpoint: mean survival time, dose: 100.0 mg/kg/injection, schedule: Q04DX003 (ip), vehicle: saline); 97 % of control (endpoint: mean survival time, dose: 200.0 mg/kg/injection, schedule: Q01DX001 (ip), vehicle: saline); 109 % of control (endpoint: mean survival time, dose: 200.0 mg/kg/injection, schedule: Q01DX009 (ip), vehicle: saline); 98 % of control (endpoint: mean survival time, dose: 200.0 mg/kg/injection, schedule: Q04DX003 (ip), vehicle: saline). Besides, the T/C is, setting by setting: (endpoint: mean survival time, dose: 400.0 mg/kg/injection, schedule: Q01DX001 (ip), vehicle: saline) 91 % of control; (endpoint: mean survival time, dose: 400.0 mg/kg/injection, schedule: Q01DX009 (ip), vehicle: saline) 93 % of control; (endpoint: mean survival time, dose: 400.0 mg/kg/injection, schedule: Q04DX003 (ip), vehicle: saline) 97 % of control.
As for `C=C1CC(C)(C)C(c2ccccc2)OC1=O` (stereo not given), the T/C reads like this: (endpoint: mean survival time, dose: 100.0 mg/kg/injection, schedule: Q01DX001 (ip), vehicle: saline with Tween-80) 107 % of control; (endpoint: mean survival time, dose: 200.0 mg/kg/injection, schedule: Q01DX001 (ip), vehicle: saline with Tween-80) 102 % of control.
Turning to `COC(=O)c1ccccc1N=NNc1ccc(C)c(Cl)c1`, the T/C is 94 % of control under setting [4]; 94 % of control under setting [5]; 87 % of control (endpoint: mean survival time, dose: 400.0 mg/kg/injection, schedule: Q04DX002 (ip), vehicle: saline with Tween-80).
`CCC1CN1CC1CO1` (stereo not given): the T/C runs as follows: (endpoint: mean survival time, dose: 4.0 mg/kg/injection, schedule: Q01DX Z (ip), vehicle: saline) 101 % of control; (endpoint: mean survival time, dose: 7.0 mg/kg/injection, schedule: Q01DX Z (ip), vehicle: saline) 106 % of control; (endpoint: mean survival time, dose: 10.0 mg/kg/injection, schedule: Q01DX Z (ip), vehicle: saline) 95 % of control; (endpoint: mean survival time, dose: 33.0 mg/kg/injection, schedule: Q01DX Z (ip), vehicle: saline) 158 % of control and 196 % of control; (endpoint: mean survival time, dose: 50.0 mg/kg/injection, schedule: Q01DX Z (ip), vehicle: saline) 123 % of control and 183 % of control and 218 % of control; (endpoint: mean survival time, dose: 75.0 mg/kg/injection, schedule: Q01DX Z (ip), vehicle: saline) 120 % of control.
As for `CCC(C)C1NC(=O)C(NC(=O)c2c3nc4c(C(=O)NC5C(=O)NC(C(C)CC)C(=O)N6CCCC6C(=O)N(C)CC(=O)N(C)C(C(C)C)C(=O)OC5C)ccc(C)c4oc-3c(C)c(=O)c2N)C(C)OC(=O)C(C(C)C)N(C)C(=O)CN(C)C(=O)C2CCCN2C1=O` (stereo not given) (I: TIP[Sar][NMeV] / II: TIP[Sar][NMeV]; ester I:1-I:C, II:1-II:C; linker I:N-II:N via Actinocin(1to9); configuration not given here), the T/C (endpoint: mean survival time, dose: 0.1 mg/kg/injection, schedule: Q01DX009 (ip), vehicle: saline) was 170 % of control; the T/C (endpoint: mean survival time, dose: 0.4 mg/kg/injection, schedule: Q01DX009 (ip), vehicle: saline) was 86 % of control; the T/C (endpoint: mean survival time, dose: 2.5 micrograms/kg/injection, schedule: Q01DX009 (ip), vehicle: saline) is 115 % of control; the T/C (endpoint: mean survival time, dose: 3.1 micrograms/kg/injection, schedule: Q01DX001 (ip), vehicle: saline) is 106 % of control; the T/C (endpoint: mean survival time, dose: 6.0 micrograms/kg/injection, schedule: Q01DX009 (ip), vehicle: saline) is 122 % of control; the T/C (endpoint: mean survival time, dose: 6.3 micrograms/kg/injection, schedule: Q01DX001 (ip), vehicle: saline) is 102 % of control. Also, the T/C reads like this: (endpoint: mean survival time, dose: 10.0 micrograms/kg/injection, schedule: Q01DX009 (ip), vehicle: saline) 118 % of control; (endpoint: mean survival time, dose: 12.5 micrograms/kg/injection, schedule: Q01DX001 (ip), vehicle: saline) 102 % of control; (endpoint: mean survival time, dose: 12.5 micrograms/kg/injection, schedule: Q01DX009 (ip), vehicle: saline) 122 % of control; (endpoint: mean survival time, dose: 25.0 micrograms/kg/injection, schedule: Q01DX001 (ip), vehicle: saline) 114 % of control; (endpoint: mean survival time, dose: 50.0 micrograms/kg/injection, schedule: Q01DX001 (ip), vehicle: saline) 102 % of control; (endpoint: mean survival time, dose: 50.0 micrograms/kg/injection, schedule: Q01DX009 (ip), vehicle: saline) 150 % of control. Further, the T/C (endpoint: mean survival time, dose: 59.4 micrograms/kg/injection, schedule: Q01DX009 (ip), vehicle: acetone) was 160 % of control; the T/C (endpoint: mean survival time, dose: 90.0 micrograms/kg/injection, schedule: Q01DX009 (ip), vehicle: acetone) was 102 % of control; the T/C (endpoint: mean survival time, dose: 100.0 micrograms/kg/injection, schedule: Q01DX001 (ip), vehicle: saline) is 111 % of control; the T/C (endpoint: mean survival time, dose: 135.0 micrograms/kg/injection, schedule: Q01DX009 (ip), vehicle: acetone) is 104 % of control; the T/C (endpoint: mean survival time, dose: 200.0 micrograms/kg/injection, schedule: Q01DX001 (ip), vehicle: saline) is 117 % of control; the T/C (endpoint: median survival time, dose: 12.5 micrograms/kg/injection, schedule: Q01DX009 (ip), vehicle: water) is 113 % of control. Further, the T/C is, setting by setting: (endpoint: median survival time, dose: 25.0 micrograms/kg/injection, schedule: Q01DX009 (ip), vehicle: water) 117 % of control; (endpoint: median survival time, dose: 75.0 micrograms/kg/injection, schedule: Q04DX003 (ip), vehicle: water) 122 % of control; (endpoint: median survival time, dose: 200.0 micrograms/kg/injection, schedule: Q01DX001 (ip), vehicle: water) 118 % of control; (endpoint: median survival time, dose: 600.0 micrograms/kg/injection, schedule: Q04DX003 (ip), vehicle: water) 150 % of control.
As to `CCCCOC(=O)CCl`, the T/C is, setting by setting: under setting [4], 100 % of control; under setting [5], 107 % of control.
Take `O=C1C(=O)c2cc(Cl)ccc2-c2ccccc21`: the T/C reads like this: (endpoint: mean survival time, dose: 50.0 mg/kg/injection, schedule: Q01DX001 (ip), vehicle: carboxymethylcellulose (CMC)) 100 % of control; under setting [1], 102 % of control; under setting [2], 100 % of control; under setting [3], 105 % of control.

These data come from PubChem BioAssay AID248 (DTP/NCI, 2004).
